ChEMBL document CHEMBL1201862, “PubChem BioAssay data set” (2004)
Active and inactive are the calls of the source.

Key:
[1] = growth suppression of beta-catenin-knockout colon cells, dose response, cell-based, HCT116, human colon tumor (AID 1045); format: functional;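 note: HCT116 colon tumor cells with beta catenin knocked out; cells exposed to compound for 60 hours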
[2] = target: Protein-tyrosine kinase 2-beta (Homo sapiens, UniProt Q14289);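 note: potency of inhibitors of PYK2 kinase phosphorylation of poly-GT substrate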
[3] = growth suppression of PTEN-null colon cells, dose response, cell-based, HCT116 PTEN knockout (AID 1047); format: functional;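 note: HCT116 colon tumor cells with PTEN knocked out; cells exposed to compound for 60 hours before readout; potency for loss of cell viability measured by luminescence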
[4] = Luminescence Cell-Based Dose Response HTS to Identify Activators of Luciferase Translation or Activity in H4 […] Cells. [Related pubchem assays: 1829 (Project Summary), 1814 (Primary HTS)]; format: functional
[5] = Luminescence Cell-Based Dose Response to Identify Activators of 5'UTR Stem-Loop Driven Prion Protein mRNA Translation in H4-C Neuroglioblastoma Cells. [Related pubchem assays: 1829 (Project Summary), 1814 (Primary HTS)]; format: functional
[6] = tested on: H4; assay: Luminescence Cell-Based Dose Response HTS to Identify Activators of 5'UTR Stem-Loop Driven Prion Protein mRNA Translation in H4 Neuroglioblastoma Cells. [Related pubchem assays: 1829 (Project Summary), 1814 (Primary HTS)]; format: functional; conditions: Homo sapiens
[7] = Luminescence Cell-Based Dose Confirmation to Identify Activators of 5'UTR Stem-Loop Driven Alpha-Synuclein mRNA Translation in H4 Neuroglioblastoma Cells. [Related pubchem assays: 1829 (Project Summary), 1814 (Primary HTS)]; format: functional
[8] = Luminescence Cell-Based Dose Response to Identify Activators of Luciferase Translation or Activity in H4-C Neuroglioblastoma Cells. [Related pubchem assays: 1829 (Project Summary), 1814 (Primary HTS)]; format: functional
[9] = target: T1, Estrogen receptor (Homo sapiens, UniProt P03372);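 note: potency for inhibiting coactivator peptide recruitment to the receptor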
T1 sequence (P03372 whole entry): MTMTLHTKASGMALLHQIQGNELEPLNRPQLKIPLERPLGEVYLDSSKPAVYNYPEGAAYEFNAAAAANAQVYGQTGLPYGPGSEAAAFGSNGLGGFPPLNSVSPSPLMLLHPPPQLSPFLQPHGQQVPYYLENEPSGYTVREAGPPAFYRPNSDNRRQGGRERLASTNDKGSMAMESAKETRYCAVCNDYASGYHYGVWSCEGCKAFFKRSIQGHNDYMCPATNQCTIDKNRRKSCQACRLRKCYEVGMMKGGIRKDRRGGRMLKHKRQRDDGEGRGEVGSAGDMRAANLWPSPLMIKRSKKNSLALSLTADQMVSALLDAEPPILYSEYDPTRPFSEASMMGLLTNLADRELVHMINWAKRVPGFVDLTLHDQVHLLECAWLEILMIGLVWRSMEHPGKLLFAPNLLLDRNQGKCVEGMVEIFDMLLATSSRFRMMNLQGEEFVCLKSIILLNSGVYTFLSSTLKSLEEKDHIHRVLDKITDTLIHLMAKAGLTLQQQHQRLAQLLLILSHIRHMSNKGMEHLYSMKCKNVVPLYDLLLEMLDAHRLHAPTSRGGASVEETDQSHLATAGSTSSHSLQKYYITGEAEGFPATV

[10] = tested on: Vero; assay: host cell cytotoxicity of antiviral hits, dose response, cytotoxicity control for West Nile virus antiviral project, secondary assay (AID 1650); format: functional; conditions: Chlorocebus sabaeus
[11] = target: T2, Endoribonuclease toxin MazF (Escherichia coli K-12, UniProt P0AE70); assay: MazF toxin RNase activators, dose response, biochemical, fluorescence, single-stranded RNA substrate, uHTS hits (AID 588481); format: functional
T2 sequence (P0AE70 whole entry): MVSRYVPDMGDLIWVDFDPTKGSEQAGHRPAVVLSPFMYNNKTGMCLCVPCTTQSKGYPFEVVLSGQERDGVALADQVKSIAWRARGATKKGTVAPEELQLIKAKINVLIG

[12] = cytotoxicity in KRAS-transformed pancreatic duct cells, primary screen, cell-based, fluorescence, HTS (AID 431); format: functional; conditions: Homo sapiens;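 note: cell line used: HPDE-C7K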
[13] = target: T2, Endoribonuclease toxin MazF; assay: fluorescent RNA oligo signal without MazF, dose response, counter-screen for MazEF activator project, biochemical, fluorescence, single-stranded RNase substrate (AID 588502); format: functional
[14] = cytotoxicity in HPDE-C7 cells, cell-based, fluorescence, HTS (AID 430); format: functional; conditions: Homo sapiens
[15] = target: T3, Protein Rev (Human immunodeficiency virus type 1 group M subtype B (isolate WMJ22)(HIV-1), UniProt P05866); assay: HIV-1 Rev-RRE RNA binding disruptors, dose response, biochemical, protein-RNA interaction (AID 842); design: species or system Human immunodeficiency virus 1
T3 sequence (P05866 whole entry): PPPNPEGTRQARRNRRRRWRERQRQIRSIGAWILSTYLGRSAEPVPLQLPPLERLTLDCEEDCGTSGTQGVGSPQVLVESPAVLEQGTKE

[16] = target: T4, Low molecular weight phosphotyrosine protein phosphatase (Homo sapiens, UniProt P24666); format: functional; conditions: read-out: IC50_Mean
T4 sequence (P24666 whole entry): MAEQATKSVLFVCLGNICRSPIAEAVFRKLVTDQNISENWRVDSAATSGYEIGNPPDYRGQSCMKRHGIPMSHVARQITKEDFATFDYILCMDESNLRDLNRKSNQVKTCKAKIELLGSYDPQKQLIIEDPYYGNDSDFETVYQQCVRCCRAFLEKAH

[17] = target: T4, Low molecular weight phosphotyrosine protein phosphatase; format: functional; conditions: read-out: IC50_Mean; remark: listed apart in the source
[18] = target: T5, Carboxy-terminal domain RNA polymerase II polypeptide A small phosphatase 1 (Homo sapiens, UniProt Q9GZU7); assay: inhibitors of CTDSP1, concentration-response testing, biochemical assay, absorbance-based, actives from ultra-high-throughput screening (AID 540297); format: functional
T5 sequence (Q9GZU7 whole entry): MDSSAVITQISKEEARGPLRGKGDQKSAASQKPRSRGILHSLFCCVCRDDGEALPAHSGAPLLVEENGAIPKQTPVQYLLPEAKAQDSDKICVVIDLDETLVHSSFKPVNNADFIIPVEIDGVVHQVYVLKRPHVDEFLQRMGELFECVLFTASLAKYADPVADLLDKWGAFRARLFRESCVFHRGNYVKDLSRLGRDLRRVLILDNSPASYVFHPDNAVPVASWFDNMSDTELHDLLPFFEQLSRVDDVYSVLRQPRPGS

[19] = target: DNA dC->dU-editing enzyme APOBEC-3G (Homo sapiens, UniProt Q9HC16); assay: Dose Response confirmation of small molecule APOBEC3G DNA Deaminase Inhibitors via a fluorescence-based single-stranded DNA deaminase assay. [Related pubchem assays (depositor defined):AID493012, AID493028]; format: functional
[20] = inhibitors of intracellular T. cruzi replication, confirmation, NIH3T3 host cells, beta-gal luminescence (AID 2044); format: functional, cell-based;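 note: intracellular parasites grown in NIH/3T3 mouse fibroblasts as host cells; luminescent beta-galactosidase reporter signal from transgenic T. cruzi replicating inside host cells; inhibitors lower the luminescence signal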
[21] = target: T6, Calpain-2 catalytic subunit (Sus scrofa, UniProt P43367); assay: pig calpain II inhibitor potency, dose response, biochemical, fluorogenic peptide substrate (AID 1420); format: functional
T6 sequence (P43367 whole entry): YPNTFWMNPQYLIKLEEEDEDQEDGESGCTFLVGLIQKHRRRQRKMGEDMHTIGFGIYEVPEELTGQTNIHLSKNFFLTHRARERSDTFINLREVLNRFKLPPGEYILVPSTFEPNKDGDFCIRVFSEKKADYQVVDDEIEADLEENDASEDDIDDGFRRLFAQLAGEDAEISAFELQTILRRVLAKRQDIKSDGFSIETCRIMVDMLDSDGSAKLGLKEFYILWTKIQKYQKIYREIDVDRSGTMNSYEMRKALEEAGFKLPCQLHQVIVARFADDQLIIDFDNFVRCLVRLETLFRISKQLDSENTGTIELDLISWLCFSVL

[22] = target: T7, High affinity choline transporter 1 (Homo sapiens, UniProt Q9GZV3); assay: CHT inhibitors, dose response, cell-based, 5-point CRC, membrane potential dye (AID 504840); format: functional
T7 sequence (Q9GZV3 whole entry): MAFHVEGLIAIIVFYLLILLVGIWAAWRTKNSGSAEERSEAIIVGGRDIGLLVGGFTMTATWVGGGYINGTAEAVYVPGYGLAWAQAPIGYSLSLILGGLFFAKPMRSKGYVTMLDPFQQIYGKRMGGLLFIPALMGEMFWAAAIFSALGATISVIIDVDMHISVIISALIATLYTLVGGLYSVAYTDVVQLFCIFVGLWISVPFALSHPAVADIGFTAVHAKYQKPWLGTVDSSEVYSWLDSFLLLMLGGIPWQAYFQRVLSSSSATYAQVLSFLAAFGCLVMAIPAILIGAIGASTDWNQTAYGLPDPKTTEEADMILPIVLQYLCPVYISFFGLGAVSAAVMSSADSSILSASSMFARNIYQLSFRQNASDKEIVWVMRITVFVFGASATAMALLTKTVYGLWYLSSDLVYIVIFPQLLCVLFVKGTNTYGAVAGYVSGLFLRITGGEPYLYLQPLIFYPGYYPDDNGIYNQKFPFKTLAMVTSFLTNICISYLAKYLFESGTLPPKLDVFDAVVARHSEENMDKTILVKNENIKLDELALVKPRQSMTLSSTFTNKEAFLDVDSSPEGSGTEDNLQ

[23] = target: Heat shock protein HSP 90-alpha (Homo sapiens, UniProt P07900); assay: Luminescence-based dose response biochemical high throughput screening assay for inhibitors of the Heat Shock Protein 90 (HSP90). [Related pubchem assays: 1831 (Summary AID.), 1846 (Confirmation screen.), 1789 (Primary screen.)]
[24] = target: Sphingosine 1-phosphate receptor 3 (Homo sapiens, UniProt Q99500); assay: Dose response cell-based high throughput screening assay for antagonists of the Sphingosine 1-Phosphate Receptor 3 (S1P3). [Related pubchem assays: 1429, 485 ]; format: functional
[25] = target: 5-hydroxytryptamine receptor 1E (Homo sapiens, UniProt P28566); assay: Counterscreen assay for S1P3 antagonists: Dose response cell-based high throughput screening assay to identify antagonists of the 5-Hydroxytryptamine Receptor Subtype 1E (5HT1E). [Related pubchem assays: 1429, 485 ]; format: functional
[26] = Luminescence Cell-Based Dose Confirmation HTS to Identify Activators of 5'UTR Stem-Loop Driven Alpha-Synuclein mRNA Translation in H4 Neuroglioblastoma Cells. [Related pubchem assays: 1829 (Project Summary), 1814 (Primary HTS)]; format: functional
[27] = target: Ion channel NompC (Danio rerio, UniProt Q7T1G6); assay: Fluorescence counterscreen assay for TRPML3 agonists: dose response cell-based high-throughput screening assay to identify agonists of the transient receptor potential channel N1 (TRPN1). [Related pubchem assays: 1526, 1424, 1448 ]; format: functional
[28] = target: Mucolipin-3 (Homo sapiens, UniProt Q8TDD5); assay: Dose response cell-based high-throughput screening assay for agonists of the transient receptor potential channel ML3 (TRPML3). [Related pubchem assays: 1526, 1424, 1448 ]; format: functional
[29] = inhibitors of Bluetongue virus cytopathic effect, confirmation, arbovirus, BSR cells (AID 1250); format: functional;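 note: protection from viral cytopathic effect measured as cell viability by ATP luminescence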
[30] = HEp-2 cell cytotoxicity, dose response, cytotoxicity control for RSV inhibitor project, HTS (AID 2410); format: functional; conditions: human respiratory syncytial virus
[31] = target: Estrogen receptor beta (Homo sapiens, UniProt Q92731);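 note: recombinant ER-beta bound to coactivator SRC1 peptide in presence of estradiol agonist; inhibitors block coactivator peptide binding and lower the FRET signal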
Sequence of Estrogen receptor beta (Q92731 whole entry): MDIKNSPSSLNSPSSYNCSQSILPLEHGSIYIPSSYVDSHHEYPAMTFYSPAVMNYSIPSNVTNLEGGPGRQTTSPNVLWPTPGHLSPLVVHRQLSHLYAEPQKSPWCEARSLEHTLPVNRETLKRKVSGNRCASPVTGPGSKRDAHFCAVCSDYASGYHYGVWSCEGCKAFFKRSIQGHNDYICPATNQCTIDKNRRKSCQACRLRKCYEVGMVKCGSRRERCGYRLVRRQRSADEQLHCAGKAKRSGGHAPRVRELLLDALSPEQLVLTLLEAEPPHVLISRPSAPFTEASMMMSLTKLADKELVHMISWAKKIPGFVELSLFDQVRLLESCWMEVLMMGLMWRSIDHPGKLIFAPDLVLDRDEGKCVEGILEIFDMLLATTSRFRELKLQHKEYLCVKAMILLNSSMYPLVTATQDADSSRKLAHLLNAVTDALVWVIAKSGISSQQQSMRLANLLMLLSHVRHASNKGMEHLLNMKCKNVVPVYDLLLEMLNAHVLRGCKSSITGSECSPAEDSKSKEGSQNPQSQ

Sequence of Protein-tyrosine kinase 2-beta (Q14289 whole entry): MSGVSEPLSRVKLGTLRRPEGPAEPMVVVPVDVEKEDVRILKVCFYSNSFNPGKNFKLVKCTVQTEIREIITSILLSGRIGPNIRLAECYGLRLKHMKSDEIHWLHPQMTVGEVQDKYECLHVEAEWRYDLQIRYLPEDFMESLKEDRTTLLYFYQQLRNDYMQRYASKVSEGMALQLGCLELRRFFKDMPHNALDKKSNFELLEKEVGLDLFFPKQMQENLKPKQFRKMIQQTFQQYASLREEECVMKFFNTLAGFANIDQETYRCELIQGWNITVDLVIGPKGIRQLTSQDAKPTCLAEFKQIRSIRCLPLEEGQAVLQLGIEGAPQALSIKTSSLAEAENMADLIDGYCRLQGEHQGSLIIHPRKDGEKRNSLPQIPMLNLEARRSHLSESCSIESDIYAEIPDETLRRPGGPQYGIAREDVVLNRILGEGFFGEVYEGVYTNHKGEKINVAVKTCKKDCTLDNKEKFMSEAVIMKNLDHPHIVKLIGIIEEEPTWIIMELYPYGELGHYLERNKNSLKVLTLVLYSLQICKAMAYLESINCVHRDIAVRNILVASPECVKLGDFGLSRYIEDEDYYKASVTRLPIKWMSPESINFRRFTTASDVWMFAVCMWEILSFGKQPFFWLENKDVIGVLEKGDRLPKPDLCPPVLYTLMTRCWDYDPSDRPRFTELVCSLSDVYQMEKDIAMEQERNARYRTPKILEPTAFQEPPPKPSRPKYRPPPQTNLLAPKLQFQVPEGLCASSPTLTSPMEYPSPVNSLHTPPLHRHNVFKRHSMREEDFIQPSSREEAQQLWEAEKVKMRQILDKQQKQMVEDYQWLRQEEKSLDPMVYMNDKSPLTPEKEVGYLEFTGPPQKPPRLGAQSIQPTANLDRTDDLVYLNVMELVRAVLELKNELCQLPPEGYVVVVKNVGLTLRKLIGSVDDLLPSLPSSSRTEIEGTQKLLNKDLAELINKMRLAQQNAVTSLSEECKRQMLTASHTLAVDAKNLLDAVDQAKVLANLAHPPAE
Sequence of 5-hydroxytryptamine receptor 1E (P28566 whole entry): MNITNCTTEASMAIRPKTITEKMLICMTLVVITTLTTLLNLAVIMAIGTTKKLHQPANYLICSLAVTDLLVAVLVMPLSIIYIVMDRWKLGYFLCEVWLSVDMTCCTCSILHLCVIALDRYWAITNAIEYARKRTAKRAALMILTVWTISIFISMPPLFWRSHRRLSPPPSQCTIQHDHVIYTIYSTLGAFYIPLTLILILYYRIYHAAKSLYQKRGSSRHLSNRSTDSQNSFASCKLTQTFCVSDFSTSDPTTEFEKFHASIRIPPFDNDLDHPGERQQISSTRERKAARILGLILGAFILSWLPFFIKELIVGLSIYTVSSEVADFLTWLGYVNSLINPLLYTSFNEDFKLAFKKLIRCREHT
Sequence of Sphingosine 1-phosphate receptor 3 (Q99500 whole entry): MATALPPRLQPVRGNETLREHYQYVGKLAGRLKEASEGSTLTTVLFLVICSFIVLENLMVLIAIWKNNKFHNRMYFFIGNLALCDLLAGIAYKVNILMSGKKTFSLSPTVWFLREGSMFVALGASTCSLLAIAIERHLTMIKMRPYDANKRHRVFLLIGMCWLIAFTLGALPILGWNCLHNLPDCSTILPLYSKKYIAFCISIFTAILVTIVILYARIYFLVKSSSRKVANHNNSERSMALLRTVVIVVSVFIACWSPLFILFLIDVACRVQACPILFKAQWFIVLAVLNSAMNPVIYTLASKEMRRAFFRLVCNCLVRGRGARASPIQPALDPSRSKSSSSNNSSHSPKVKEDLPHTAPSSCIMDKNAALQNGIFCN
Sequence of DNA dC->dU-editing enzyme APOBEC-3G (Q9HC16 whole entry): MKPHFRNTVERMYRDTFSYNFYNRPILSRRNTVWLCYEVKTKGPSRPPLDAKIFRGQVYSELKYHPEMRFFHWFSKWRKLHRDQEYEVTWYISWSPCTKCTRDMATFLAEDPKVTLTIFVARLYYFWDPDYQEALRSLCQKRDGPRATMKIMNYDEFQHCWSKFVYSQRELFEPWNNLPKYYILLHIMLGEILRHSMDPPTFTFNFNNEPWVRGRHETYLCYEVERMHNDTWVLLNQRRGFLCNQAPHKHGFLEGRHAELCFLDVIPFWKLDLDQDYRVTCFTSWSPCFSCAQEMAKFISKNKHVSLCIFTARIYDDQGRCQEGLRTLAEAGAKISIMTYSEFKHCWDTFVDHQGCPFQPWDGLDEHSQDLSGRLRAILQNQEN
Sequence of Mucolipin-3 (Q8TDD5 whole entry): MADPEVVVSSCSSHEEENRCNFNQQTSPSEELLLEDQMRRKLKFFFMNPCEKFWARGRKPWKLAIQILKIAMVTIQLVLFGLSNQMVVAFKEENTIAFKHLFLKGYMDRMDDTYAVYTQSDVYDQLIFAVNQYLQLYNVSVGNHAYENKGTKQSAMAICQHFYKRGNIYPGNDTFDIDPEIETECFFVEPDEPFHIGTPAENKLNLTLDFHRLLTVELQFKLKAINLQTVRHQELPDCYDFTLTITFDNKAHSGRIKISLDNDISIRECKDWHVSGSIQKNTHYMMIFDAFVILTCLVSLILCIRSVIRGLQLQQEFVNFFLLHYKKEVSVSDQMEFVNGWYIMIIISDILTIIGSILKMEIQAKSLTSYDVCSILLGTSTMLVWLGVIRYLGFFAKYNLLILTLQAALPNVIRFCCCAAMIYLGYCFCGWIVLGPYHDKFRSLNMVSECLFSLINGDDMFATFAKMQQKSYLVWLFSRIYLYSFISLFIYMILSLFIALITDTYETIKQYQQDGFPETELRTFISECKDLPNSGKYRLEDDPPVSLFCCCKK
Sequence of Ion channel NompC (Q7T1G6 whole entry): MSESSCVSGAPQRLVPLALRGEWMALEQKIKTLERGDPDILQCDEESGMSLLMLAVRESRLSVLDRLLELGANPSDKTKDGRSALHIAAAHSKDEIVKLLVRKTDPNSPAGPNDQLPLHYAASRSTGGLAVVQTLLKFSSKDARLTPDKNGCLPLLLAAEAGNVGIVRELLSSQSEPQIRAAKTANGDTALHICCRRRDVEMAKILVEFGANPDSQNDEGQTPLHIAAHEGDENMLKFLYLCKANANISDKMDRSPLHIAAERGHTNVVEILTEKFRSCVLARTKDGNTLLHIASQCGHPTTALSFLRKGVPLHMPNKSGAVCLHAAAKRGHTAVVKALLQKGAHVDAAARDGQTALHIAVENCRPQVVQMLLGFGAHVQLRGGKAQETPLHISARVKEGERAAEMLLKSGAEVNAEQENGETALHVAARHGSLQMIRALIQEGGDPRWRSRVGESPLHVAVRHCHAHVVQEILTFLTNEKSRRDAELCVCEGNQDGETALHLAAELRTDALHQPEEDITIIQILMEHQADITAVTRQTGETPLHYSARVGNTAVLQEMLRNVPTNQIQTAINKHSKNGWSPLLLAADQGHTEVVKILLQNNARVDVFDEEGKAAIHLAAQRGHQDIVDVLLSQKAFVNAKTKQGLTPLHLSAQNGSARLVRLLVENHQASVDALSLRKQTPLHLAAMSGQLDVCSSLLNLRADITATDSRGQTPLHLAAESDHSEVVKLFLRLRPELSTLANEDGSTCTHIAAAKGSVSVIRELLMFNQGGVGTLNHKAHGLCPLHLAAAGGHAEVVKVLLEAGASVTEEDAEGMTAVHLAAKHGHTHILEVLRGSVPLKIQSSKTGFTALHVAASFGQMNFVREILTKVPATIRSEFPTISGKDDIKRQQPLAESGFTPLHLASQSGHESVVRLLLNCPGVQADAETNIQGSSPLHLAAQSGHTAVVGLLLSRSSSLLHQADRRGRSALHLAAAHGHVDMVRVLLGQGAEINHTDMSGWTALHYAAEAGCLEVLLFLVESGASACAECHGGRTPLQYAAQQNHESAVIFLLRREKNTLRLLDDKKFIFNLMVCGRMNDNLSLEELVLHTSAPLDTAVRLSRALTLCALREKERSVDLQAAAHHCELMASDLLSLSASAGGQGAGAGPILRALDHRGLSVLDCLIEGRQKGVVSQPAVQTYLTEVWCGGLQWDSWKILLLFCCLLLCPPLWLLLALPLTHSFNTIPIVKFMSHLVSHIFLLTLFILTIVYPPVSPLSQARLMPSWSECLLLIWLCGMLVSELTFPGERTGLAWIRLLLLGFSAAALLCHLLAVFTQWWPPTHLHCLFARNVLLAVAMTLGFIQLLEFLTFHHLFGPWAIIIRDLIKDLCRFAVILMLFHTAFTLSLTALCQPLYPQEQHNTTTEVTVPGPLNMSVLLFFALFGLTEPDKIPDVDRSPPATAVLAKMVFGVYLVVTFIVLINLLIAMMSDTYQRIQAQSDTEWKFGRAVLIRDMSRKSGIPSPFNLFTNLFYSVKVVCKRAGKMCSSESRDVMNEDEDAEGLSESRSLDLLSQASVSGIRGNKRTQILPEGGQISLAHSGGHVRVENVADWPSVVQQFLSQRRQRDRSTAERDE

SMILES: N#Cc1cccc(NC(=O)CSc2ccc3c4c(cccc24)C(=O)c2ccccc2-3)c1
- EC50 [1]: 19.6 µM (active)
- IC50 [2]: 4.87 µM (active)
- EC50 [3]: 15.3 µM (active)

SMILES: Cc1ccc(Sc2c(CO)c(-c3ccccc3)nn2C)cc1
- EC50 [4]: > 120 µM (not active)
- EC50 [5]: 1.37 µM (inconclusive)
- EC50 [6]: > 120 µM (not active)
- EC50 [7]: 0.658 µM (inconclusive)
- EC50 [8]: > 3.8 µM (not active)

SMILES: O=C1CC(/C=C/c2ccco2)=Nc2ccccc2N1
- IC50 [9]: > 50 µM (not active)

SMILES: CCOc1ccc(/C=C2\SC(=S)N(CCC(=O)N(CCO)c3ccccc3)C2=O)cc1
- CC50 [10]: 33.5 µM (active)

SMILES: CCN(CC)c1nc2ccccc2nc1C(C#N)C(=O)NCCc1ccccc1 (centres undefined)
- EC50 [11]: > 99 µM (inactive)
- EC50 [12]: > 20 µM (not active)
- EC50 [13]: > 99 µM (inactive)
- EC50 [14]: > 20 µM (not active)

SMILES: COC(=O)c1ccc(CSc2nc(C)nc3sc(C)c(C)c23)o1
- IC50 [9]: 48.9 µM (not active)

SMILES: Cc1ccc(C(=O)NNC(=O)CSc2n[nH]c3c4cc(F)ccc4nc-3n2)cc1
- IC50 [15]: > 79.4 µM (not active)
- IC50 [16]: 14.6 µM (active)
- IC50 [17]: 17.5 µM (active)
- IC50 [18]: 5.22 µM (active)
- IC50 [19]: 28.6 µM (active)
- IC50 [2]: 5.25 µM (active)

SMILES: CCCCN(CCCC)S(=O)(=O)c1ccc(NC(=O)c2ccc([N+](=O)[O-])cc2Cl)cc1
- EC50 [20]: 0.798 µM (active)
- IC50 [21]: 1.42 µM (not active)
- CC50 [10]: 10.1 µM (active)
- IC50 [22]: 12.6 µM (active)

SMILES: CCCc1ccc(OCc2ccc(C(=O)N3CCSCC3)o2)cc1
- IC50 [23]: 0.904 µM (active)

SMILES: O=C(Nc1ccc(F)cc1F)c1c(C(F)(F)F)ccnc1Oc1ccc(Cl)cc1
- IC50 [24]: 4.29 µM (active)
- IC50 [25]: > 50 µM (not active)

SMILES: O=C1c2ccccc2C(=O)c2c1ccc1c(O)n(-c3ccccc3)nc21
- EC50 [4]: < 0.1 µM (active)
- EC50 [5]: 0.563 µM (active)
- EC50 [6]: 59.2 µM (inconclusive)
- EC50 [7]: 0.36 µM (active)
- EC50 [8]: 0.478 µM (active)
- EC50 [26]: < 0.1 µM (active)

SMILES: COc1ccc(OC)c(N(CC(=O)N2CCCCC2)S(=O)(=O)c2ccc(OC)c(OC)c2)c1
- EC50 [27]: 25.6 µM (not active)
- EC50 [28]: 1.67 µM (active)

SMILES: COC(=O)c1c(N(S(C)(=O)=O)S(C)(=O)=O)sc2c1CCN(c1ncc(C(F)(F)F)cc1Cl)C2
- IC50 [29]: 29.2 µM (active)
- CC50 [30]: 16.9 µM (active)

SMILES: O=C(CSc1ncccc1C(=O)O)c1ccc2ccccc2c1
- IC50 [23]: 0.391 µM (active)

SMILES: CCOC(=O)c1ccccc1NC(=O)c1c(F)c(F)c(F)c(F)c1F
- EC50 [12]: 13.6 µM (active)
- EC50 [14]: 15.7 µM (active)

SMILES: CCOc1ccccc1-c1nc(-c2cc3ccccc3nc2OC)no1
- IC50 [31]: > 50 µM (not active)

SMILES: O=C(N/N=C/c1ccc(-c2ccc([N+](=O)[O-])cc2)o1)[C@H]1C[C@@H]1c1ccccc1
- IC50 [24]: 3.03 µM (active)
- IC50 [25]: 1.96 µM (active)
